The values below come from paper PMC7070733 (Molecules, 2020).

The subject of one series is C. perfringens NA. In kind it is biochemical. The note with it: for IC50 NA-C. perfringens / pIC50: MUNANA substrate; for IC50 NA-C. perfringens: nd = no detection.
The target in a further series is H1N1 NA (Influenza A virus, UniProt Q9IGQ6). Put plainly: biochemical. In kind it is biochemical.
The subject of series [1] is influenza virus replication. More on the design: method as in PMID 16137775. Particulars: in vitro; cited from earlier work.
In series [2] the test system is endonuclease activity of RNA polymerase in influenza A virus. Details: method as in earlier work. Particulars: ref 40 (Kuzuhara et al. 2009); cited from earlier work.

The structures appear in SMILES notation. pIC50: −log10 of the molar value. In brackets after ≈: the same amount, converted by molar mass. Several values for one entry are separate records, joined by “and”; a condition that tells them apart may be missing. Equal values may be shown once. Entries after “also recorded” stand apart in the source; their conditions may differ.

Chain of H1N1 NA (Q9IGQ6 whole entry, looked up): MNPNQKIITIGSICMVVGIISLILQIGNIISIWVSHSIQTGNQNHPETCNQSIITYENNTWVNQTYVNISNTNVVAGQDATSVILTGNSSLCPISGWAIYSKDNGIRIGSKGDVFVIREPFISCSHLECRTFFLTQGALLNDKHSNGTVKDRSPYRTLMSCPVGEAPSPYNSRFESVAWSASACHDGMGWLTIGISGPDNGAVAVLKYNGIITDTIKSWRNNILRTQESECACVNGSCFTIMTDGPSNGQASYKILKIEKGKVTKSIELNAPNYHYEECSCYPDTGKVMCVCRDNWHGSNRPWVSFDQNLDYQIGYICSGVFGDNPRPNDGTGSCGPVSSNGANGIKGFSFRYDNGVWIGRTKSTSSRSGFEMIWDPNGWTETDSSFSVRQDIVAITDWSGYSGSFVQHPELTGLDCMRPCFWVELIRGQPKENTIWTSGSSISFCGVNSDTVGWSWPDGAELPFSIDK

For the molecule `CC(=O)N[C@H]1[C@H]([C@H](O)[C@H](O)CO)OC(C(=O)O)=C[C@@H]1O` [DANA, 2,3-didehydro-2-deoxy-N-acetylneuraminic acid, reference compound], in the series with C. perfringens NA, the “IC50 NA-C. perfringens” value was determined as 28.79 mg/L (≈ 98.8 µM).

Turning to `C[C@H]1C(=O)CC[C@@H]2[C@]1(C)CC[C@H]1[C@@]2(C)CC[C@@]2(C)[C@@H]3CC(C)(C)CC[C@]3(C)CC[C@]12C` [GC1, Friedeline], in the series with C. perfringens NA, the “activity against C. perfringens NA (in words)” value is given as “not active”. Besides, the “activity against H1N1 NA (in words)” value at H1N1 NA is “inactive”.

What is called pIC50 is −log10 of the IC50, conventionally taken in molar units. Read a high pIC50 as a small IC50. Broadly, the melting point is the temperature, or range, at which the solid turns liquid. In the case of `COC(=O)/C(C)=C/C(O)CC(C)C1(C)CC=C2C3CCC4C(C)(C)C(O)CCC4(C)C3(O)CCC21C` (stereo not drawn) [GC2, Methyl (24E)-3a,9,23-trihydroxy-17,14-friedolanostan-14,24-dien-26-oate], the melting point was in the range of 130 to 135 °C. Besides, in the series with C. perfringens NA, the “activity against C. perfringens NA (in words)” value is given as “less active; also recorded: satisfactory inhibition”; the “maximum inhibition against C. perfringens-NA” value came out at 79%; the pIC50 was 3.91; the “IC50 NA-C. perfringens” value is 81.78 mg/L and 81.72 mg/L. The “activity against H1N1 NA (in words)” value at H1N1 NA is “did not show any significant activity; also recorded: less active”. This molecule also had a pIC50 against H1N1 NA (IC50 NA-H1N1) of 2.72.

With `Oc1cc(O)c2c(c1)OC(c1ccc(O)c(O)c1)C(O)C2` (stereo not drawn) [GC4, catechin], the “activity against C. perfringens NA (in words)” value in the series on C. perfringens NA is on record as “moderately active; also recorded: moderate activity”. Moreover, the pIC50 with C. perfringens NA was 4.22; against H1N1 NA (IC50 H1N1 NA) it was 4.04; on H1N1 NA (IC50 NA-H1N1), 4.04. For the same molecule, the “IC50 NA-C. perfringens” value in the series with C. perfringens NA stood at 17.48 mg/L (≈ 60.2 µM). The “activity against H1N1 NA (in words)” value on H1N1 NA is given as “moderately active; also recorded: moderate activity”. For the same molecule, the “inhibition of influenza virus replication (in words)” value in series [1] is on record as “good inhibition”. Moreover, in series [2], the “inhibition of endonuclease activity of RNA polymerase (in words)” value is listed as “inhibited”.
